As usually defined, the Ki is a dissociation constant, usually derived from enzyme kinetics or from competition with a known ligand.

Data on 22 molecules can be found in US8586617B2, “Aminomethyl-4-imidazoles” (Hoffmann-La Roche Inc., priority 2006, dated 2013).

Chain of TAAR1 (Q923Y8 whole entry): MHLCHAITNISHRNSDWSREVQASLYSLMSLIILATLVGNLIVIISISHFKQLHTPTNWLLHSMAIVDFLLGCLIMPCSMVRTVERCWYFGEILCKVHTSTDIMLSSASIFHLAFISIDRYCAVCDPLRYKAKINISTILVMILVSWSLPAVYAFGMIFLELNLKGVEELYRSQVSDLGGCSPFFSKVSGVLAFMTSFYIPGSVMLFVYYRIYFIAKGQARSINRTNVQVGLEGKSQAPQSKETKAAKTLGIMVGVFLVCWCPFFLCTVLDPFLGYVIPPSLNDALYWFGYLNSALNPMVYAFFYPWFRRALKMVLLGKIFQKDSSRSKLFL

The test addresses TAAR1 (Mus musculus (Mouse), UniProt Q923Y8). Briefly: TAAR1 radioligand binding assay ([3H]-rac-2-(1,2,3,4-tetrahydro-1-naphthyl)-2-imidazoline, membranes of stably transfected HEK293 cells). The following applies: read-out: Ki (μM) mouse; mouse TAAR1; radioligand [3H]-rac-2-(1,2,3,4-tetrahydro-1-naphthyl)-2-imidazoline at 60 nM; 4° C., 30 minutes.
Experimental: The ability of the compounds of the present invention to bind to TAAR1 was investigated in accordance with the test given hereinafter.
For the generation of stably transfected cell lines HEK293 cells were transfected with the pIRESneo2 expression plasmids containing the TAAR coding sequences (described above) with Lipofectamine 2000 (Invitrogen) according to the instructions of the manufacturer, and 24 hours post transfection the culture medium was supplemented with 1 mg/ml G418 (Sigma, Buchs, Switzerland). After a culture period of about 10 days, clones were isolated, expanded and tested for responsiveness to trace amines (all compounds purchased from Sigma) with the cAMP Biotrak Enzyme immunoassay (EIA) System (Amersham) following the non-acetylation EIA procedure provided by the manufacturer.
Cells at confluence were rinsed with ice-cold phosphate buffered saline without Ca^2+ and Mg^2+ containing 10 mM EDTA and pelleted by centrifugation at 1000 rpm for 5 min at 4° C. The pellet was then washed twice with ice-cold phosphate buffered saline and cell pellet was frozen immediately by immersion in liquid nitrogen and stored until use at −80° C. The cell pellet was then suspended in 20 ml HEPES-NaOH (20 mM), pH 7.4 containing 10 mM EDTA, and homogenized with a Polytron (PT 3000, Kinematica) at 10,000 rpm for 10 seconds. The homogenate was centrifuged at 48,000×g for 30 minutes at 4° C. and the pellet resuspended in 20 ml HEPES-NaOH (20 mM), pH 7.4 containing 0.1 mM EDTA (buffer A), and homogenized with a Polytron at 10,000 rpm for 10 seconds. The homogenate was then centrifuged at 48,000×g for 30 minutes at 4° C. and the pellet resuspended in 20 ml buffer A, and homogenized with a Polytron at 10,000 rpm for 10 seconds. […] The homogenate was then centrifuged at 48,000×g for 10 minutes at 4° C., resuspended in HEPES-NaOH (20 mM), pH 7.0 including MgCl2 (10 mM) and CaCl2 (2 ml) (buffer B) at 200 μg protein per ml and homogenized with a Polytron at 10,000 rpm for 10 seconds.
Binding assay was performed at 4° C. in a final volume of 1 ml, and with an incubation time of 30 minutes. […] Non-specific binding was defined as the amount of [^3H]-rac-2-(1,2,3,4-tetrahydro-1-naphthyl)-2-imidazoline bound in the presence of the appropriate unlabelled ligand (10 μM). Competing ligands were tested in a wide range of concentrations (10 pM-30 μM). […] Each experiment was performed in duplicate. All incubations were terminated by rapid filtration through UniFilter-96 plates (Packard Instrument Company) and glass filter GF/C, pre-soaked for at least 2 h in polyethylenimine 0.3%, and using a Filtermate 96 Cell Harvester (Packard Instrument Company). The tubes and filters were then washed 3 times with 1 ml aliquots of cold buffer B. Filters were not dried and soaked in Ultima gold (45 D/well, Packard Instrument Company) and bound radioactivity was counted by a TopCount Microplate Scintillation Counter (Packard Instrument Company).
As for `Brc1ccc(NCc2cnc[nH]2)cc1Br` [Example 279, (3,4-Dibromo-phenyl)-(1H-imidazol-4-ylmethyl)-amine], the Ki was determined as 0.004 µM.

Turning to `Fc1ccc(NCc2cnc[nH]2)cc1Cl` [Example 281, (3-Chloro-4-fluoro-phenyl)-(1H-imidazol-4-ylmethyl)-amine], the Ki is 0.004 µM.

In the case of `CN(Cc1cnc[nH]1)c1cccc(Br)c1` [Example 284, (3-Bromo-phenyl)-(3H-imidazol-4-ylmethyl)-methyl-amine], the Ki turned out to be 0.002 µM.

For the molecule `CN(Cc1cnc[nH]1)c1ccc(F)c(F)c1` [Example 287, (3,4-Difluoro-phenyl)-(1H-imidazol-4-ylmethyl)-methyl-amine], the Ki came to 0.007 µM.

As to `CN(Cc1cnc[nH]1)c1ccc(Cl)c(Cl)c1` [Example 288, (3,4-Dichloro-phenyl)-(1H-imidazol-4-ylmethyl)-methyl-amine], the Ki worked out at 0.002 µM.

In the case of `CN(Cc1cnc[nH]1)c1cc(Cl)cc(Cl)c1` [Example 291, (3,5-Dichloro-phenyl)-(1H-imidazol-4-ylmethyl)-methyl-amine], the Ki turned out to be 0.001 µM.

In the case of `CN(Cc1cnc[nH]1)c1cc(F)cc(F)c1` [Example 292, (3,5-Difluoro-phenyl)-(1H-imidazol-4-ylmethyl)-methyl-amine], the Ki stood at 0.007 µM.

As to `CC(C)N(Cc1cnc[nH]1)c1ccc(Br)cc1` [Example 296, (4-Bromo-phenyl)-(1H-imidazol-4-ylmethyl)-isopropyl-amine], the Ki turned out to be 0.004 µM.

As for `CC(C)N(Cc1cnc[nH]1)c1ccc(Br)c(Br)c1` [Example 297, (3,4-Dibromo-phenyl)-(1H-imidazol-4-ylmethyl)-isopropyl-amine], the Ki came out at 0.001 µM.

For `CCN(Cc1cnc[nH]1)c1ccc(Br)cc1` [Example 302, (4-Bromo-phenyl)-ethyl-(1H-imidazol-4-ylmethyl)-amine], the Ki is 0.003 µM.

`CCN(Cc1cnc[nH]1)c1cc(Cl)cc(Cl)c1` [Example 303, (3,5-Dichloro-phenyl)-ethyl-(1H-imidazol-4-ylmethyl)-amine]: the Ki came to 0.001 µM.

With `CCN(Cc1cnc[nH]1)c1ccc(Br)c(F)c1` [Example 305, (4-Bromo-3-fluoro-phenyl)-ethyl-(1H-imidazol-4-ylmethyl)-amine], the Ki was found to be 0.002 µM.

Take `CCN(Cc1cnc[nH]1)c1cc(F)cc(F)c1` [Example 306, (3,5-Difluoro-phenyl)-ethyl-(1H-imidazol-4-ylmethyl)-amine]: the Ki is 0.002 µM.

Turning to `CCN(Cc1cnc[nH]1)c1ccc(Cl)c(F)c1` [Example 307, (4-Chloro-3-fluoro-phenyl)-ethyl-(1H-imidazol-4-ylmethyl)-amine], the Ki worked out at 0.002 µM.

As for `CCN(Cc1cnc[nH]1)c1cc(F)cc(Cl)c1` [Example 308, (3-Chloro-5-fluoro-phenyl)-ethyl-(1H-imidazol-4-ylmethyl)-amine], the Ki worked out at 0.001 µM.

Regarding `CCN(Cc1cnc[nH]1)c1ccc(F)c(Br)c1` [Example 309, (3-Bromo-4-fluoro-phenyl)-ethyl-(1H-imidazol-4-ylmethyl)-amine], the Ki stood at 0.003 µM.

Regarding `CCN(Cc1cnc[nH]1)c1ccc(F)c(Cl)c1` [Example 312, (3-Chloro-4-fluoro-phenyl)-ethyl-(1H-imidazol-4-ylmethyl)-amine], the Ki stood at 0.001 µM.

In the case of `CCN(Cc1cnc[nH]1)c1ccc(Cl)c(OC)c1` [Example 324, (4-Chloro-3-methoxy-phenyl)-ethyl-(1H-imidazol-4-ylmethyl)-amine], the Ki amounted to 0.002 µM.

As for `Clc1cc(NCc2cnc[nH]2)ccc1Br` [Example 325, (4-Bromo-3-chloro-phenyl)-(1H-imidazol-4-ylmethyl)-amine], the Ki turned out to be 0.002 µM.

Regarding `FC(F)(F)Oc1ccc(NCc2cnc[nH]2)cc1Cl` [Example 327, (3-Chloro-4-trifluoromethoxy-phenyl)-(1H-imidazol-4-ylmethyl)-amine], the Ki worked out at 0.002 µM.

Take `CC(C)N(Cc1cnc[nH]1)c1ccc(Br)c(Cl)c1` [Example 331, (4-Bromo-3-chloro-phenyl)-(1#H!-imidazol-4-ylmethyl)-isopropyl-amine]: the Ki stood at 0.001 µM.

For `CCN(Cc1cnc[nH]1)c1ccc(OC(F)(F)F)c(Cl)c1` [Example 333, (3-Chloro-4-trifluoromethoxy-phenyl)-ethyl-(1H-imidazol-4-ylmethyl)-amine], the inhibition constant Ki worked out at 0.001 µM.
